Key:
rape = assay: Test B pre/postemergence rape; format: in vivo, Brassica napus; conditions: for Rape plant response rating (0 to 10 scale): 0 is no effect
Method in brief: (§1)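 Response is a visual 0-to-10 score relative to untreated plants, where 0 means no effect and 10 means complete control, taken twelve to sixteen days after application. Treatments went onto soil at planting and onto foliage of 1- to 4-leaf plants, using a surfactant-containing non-phytotoxic solvent.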

purple nutsedge = assay: Test B pre/postemergence purple nutsedge; format: in vivo, Cyperus rotundus; conditions: for Nutsedge plant response rating (0 to 10 scale): 0 is no effect
Method in brief: as §1

sugar beet = assay: Test B pre/postemergence sugar beet; format: in vivo, Beta vulgaris; conditions: for Sugarbeets plant response rating (0 to 10 scale): 0 is no effect
Method in brief: as §1

duck salad = assay: Test B flood test duck salad; format: in vivo, Heteranthera limosa
Method in brief: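 Flood test on plants grown to the 2-leaf stage; treated plants kept in greenhouse twelve to sixteen days, then visually rated against controls on a 0 (no effect) to 10 (complete control) scale.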

[1] = Preemergence, Rate 62 g/ha, scale of 0 to 10 where 0 is no effect and 10 is complete control
[2] = Preemergence, Rate 125 g/ha, 10 is complete control
[3] = Preemergence, Rate 250 g/ha, scale 0 to 10, 0 is no effect, 10 is complete control
[4] = Preemergence, Rate 500 g/ha, scale 0 to 10 (0 no effect, 10 complete control)
[5] = Rate 62 g/ha, Postemergence, scale of 0 to 10 where 0 is no effect and 10 is complete control
[6] = Rate 125 g/ha, Postemergence, scale 0 to 10
[7] = Rate 500 g/ha, Postemergence, scale 0 to 10
[8] = Rate 62 g/ha, headed Pre-emergence (flood test species), scale 0 to 10 (0 no effect, 10 complete control)
[9] = Rate 125 g/ha, Pre-emergence, flood test species, scale 0 to 10 where 0 is no effect and 10 is complete control
[10] = Rate 250 g/ha, Pre-emergence, flood-test species, scale 0 to 10, 0 is no effect, 10 is complete control
[11] = Rate 500 g/ha, headed Pre-emergence (flood test species), scale 0 to 10 (0 no effect, 10 complete control)
[12] = Preemergence, Rate 31 g/ha, visual rating, scale 0 to 10 (0 no effect, 10 complete control)
[13] = Preemergence, Rate 250 g/ha, scale of 0 to 10 where 0 is no effect and 10 is complete control
[14] = Rate 31 g/ha, Postemergence, scale 0 to 10
[15] = Rate 125 g/ha, Preemergence, scale of 0 to 10 where 0 is no effect and 10 is complete control
[16] = Postemergence, Rate 125 g/ha, scale of 0 to 10 where 0 is no effect and 10 is complete control
[17] = Preemergence, Rate 62 g/ha, scale 0 to 10 (0 no effect, 10 complete control)
[18] = Rate 250 g/ha, Postemergence, scale 0 to 10, 0 is no effect, 10 is complete control
[19] = Postemergence, Rate 250 g/ha, scale 0 to 10
[20] = Preemergence, Rate 125 g/ha, scale of 0 to 10 where 0 is no effect and 10 is complete control
[21] = Preemergence, Rate 500 g/ha, scale 0 to 10, 0 is no effect, 10 is complete control
[22] = Rate 62 g/ha, Postemergence, scale 0 to 10 (0 no effect, 10 complete control)
[23] = Rate 125 g/ha, Postemergence, scale 0 to 10, 0 is no effect, 10 is complete control
[24] = Postemergence, Rate 62 g/ha, scale 0 to 10, 0 is no effect, 10 is complete control
[25] = Postemergence, Rate 250 g/ha, scale 0 to 10, 0 no effect, 10 complete control
[26] = Preemergence, Rate 125 g/ha, scale 0 to 10 (0 no effect, 10 complete control)
[27] = Preemergence, Rate 500 g/ha, scale 0 (no effect) to 10 (complete control)
[28] = Rate 125 g/ha, Postemergence, scale 0 to 10, 0 no effect, 10 complete control
[29] = Rate 500 g/ha, Postemergence, scale 0 to 10, 0 no effect, 10 complete control

COc1nc(OC)nc(N(C(=O)n2oc(=O)n(-c3ccccc3C)c2=O)C(C)C)n1 [Compound 181]
Rape plant response rating (rape; [1]): 0 | Rape plant response rating (0 to 10 scale) (rape; [2]): 0 | Rape plant response rating (rape; [3]): 0 | Rape plant response rating (rape; [4]): 0 | Rape plant response rating (rape; [5]): 0 | Rape plant response rating (rape; [6]): 0 | Plant response rating (0 to 10; 0 is no effect, 10 is complete control), Rape (rape; Rate 250 g/ha, Postemergence): 0 | Rape plant response rating (rape; [7]): 0 | Nutsedge plant response rating (purple nutsedge; [1]): 0 | Nutsedge plant response rating (0 to 10 scale) (purple nutsedge; [2]): 0 | Nutsedge plant response rating (purple nutsedge; [3]): 0 | Nutsedge plant response rating (purple nutsedge; [4]): 0 | Nutsedge plant response rating (purple nutsedge; [5]): 0 | Nutsedge plant response rating (purple nutsedge; [6]): 0 | Plant response rating (0 to 10; 0 is no effect, 10 is complete control), Nutsedge (purple nutsedge; Rate 250 g/ha, Postemergence): 0 | Nutsedge plant response rating (purple nutsedge; [7]): 0 | Sugarbeets plant response rating (sugar beet; [1]): 0 | Sugarbeets plant response rating (0 to 10 scale) (sugar beet; [2]): 0 | Sugarbeets plant response rating (sugar beet; [3]): 0 | Sugarbeets plant response rating (sugar beet; [4]): 0 | Sugarbeets plant response rating (sugar beet; [5]): 0 | Sugarbeets plant response rating (sugar beet; [6]): 0 | Plant response rating (0 to 10; 0 is no effect, 10 is complete control), Sugarbeets (sugar beet; Rate 250 g/ha, Postemergence): 0 | Sugarbeets plant response rating (sugar beet; [7]): 0 | Ducksalad plant response rating (duck salad; [8]): 0 | Ducksalad plant response rating (duck salad; [9]): 0 | Ducksalad plant response rating (duck salad; [10]): 0 | Plant response rating, Ducksalad (duck salad; [11]): 0

CC(=O)Cn1c(=O)on(C(=O)N(c2ccc(F)cc2)C(C)C)c1=O [Compound 217]
Rape plant response rating (rape; [12]): 0 | Rape plant response rating (rape; [1]): 0 | Rape plant response rating (rape; [13]): 4 | Rape plant response rating (rape; [14]): 0 | Rape plant response rating (rape; [5]): 0 | Rape plant response rating (rape; [6]): 0 | Rape plant response rating (rape; [15]): 0 | Plant response rating (0 to 10; 0 is no effect, 10 is complete control), Rape (rape; Rate 250 g/ha, Postemergence): 0 | Nutsedge plant response rating (purple nutsedge; [12]): 0 | Nutsedge plant response rating (purple nutsedge; [1]): 0 | Nutsedge plant response rating (purple nutsedge; [13]): 0 | Nutsedge plant response rating (purple nutsedge; [14]): 0 | Nutsedge plant response rating (purple nutsedge; [5]): 0 | Nutsedge plant response rating (purple nutsedge; [6]): 0 | Nutsedge plant response rating (purple nutsedge; [15]): 0 | Plant response rating (0 to 10; 0 is no effect, 10 is complete control), Nutsedge (purple nutsedge; Rate 250 g/ha, Postemergence): 0 | Sugarbeets plant response rating (sugar beet; [12]): 0 | Sugarbeets plant response rating (sugar beet; [1]): 0 | Sugarbeets plant response rating (sugar beet; [13]): 0 | Sugarbeets plant response rating (sugar beet; [5]): 0 | Sugarbeets plant response rating (sugar beet; [6]): 0 | Sugarbeets plant response rating (sugar beet; [15]): 0 | Plant response rating (0 to 10; 0 is no effect, 10 is complete control), Sugarbeets (sugar beet; Rate 250 g/ha, Postemergence): 0 | Ducksalad plant response rating (duck salad; Rate 31 g/ha, Pre-emergence section (flood test species), scale 0 to 10): 0 | Ducksalad plant response rating (duck salad; [8]): 0 | Ducksalad plant response rating (duck salad; [9]): 0 | Ducksalad plant response rating (duck salad; [10]): 0

CC(C)c1noc(C(C)C)c1-n1c(=O)on(C(=O)N(c2ccc(F)cc2)C(C)C)c1=O [Compound 135]
Rape plant response rating (rape; [16]): 0 | Rape plant response rating (rape; [17]): 0 | Rape plant response rating (0 to 10 scale) (rape; [2]): 0 | Rape plant response rating (rape; [3]): 0 | Rape plant response rating (rape; [4]): 0 | Rape plant response rating (rape; [5]): 0 | Plant response rating, Rape (rape; [18]): 0 | Rape plant response rating (rape; [7]): 0 | Nutsedge plant response rating (purple nutsedge; [16]): 0 | Nutsedge plant response rating (purple nutsedge; [17]): 0 | Nutsedge plant response rating (0 to 10 scale) (purple nutsedge; [2]): 0 | Nutsedge plant response rating (purple nutsedge; [3]): 0 | Nutsedge plant response rating (purple nutsedge; [4]): 0 | Nutsedge plant response rating (purple nutsedge; [5]): 0 | Plant response rating, Nutsedge (purple nutsedge; [18]): 0 | Nutsedge plant response rating (purple nutsedge; [7]): 0 | Sugarbeets plant response rating (sugar beet; [16]): 0 | Sugarbeets plant response rating (sugar beet; [17]): 0 | Sugarbeets plant response rating (0 to 10 scale) (sugar beet; [2]): 0 | Sugarbeets plant response rating (sugar beet; [3]): 0 | Sugarbeets plant response rating (sugar beet; [4]): 0 | Sugarbeets plant response rating (sugar beet; [5]): 0 | Plant response rating, Sugarbeets (sugar beet; [18]): 0 | Sugarbeets plant response rating (sugar beet; [7]): 0 | Ducksalad plant response rating (duck salad; Postemergence (flood test species), Rate 125 g/ha, scale of 0 to 10 where 0 is no effect and 10 is complete control): 0 | Ducksalad plant response rating (duck salad; Rate 62 g/ha, Postemergence section, flood test species, scale of 0 to 10 where 0 is no effect and 10 is complete control): 0 | Plant response rating, Ducksalad (duck salad; Rate 250 g/ha, Postemergence (flood test), scale 0 to 10, 0 is no effect, 10 is complete control): 0 | Ducksalad plant response rating (duck salad; Rate 500 g/ha, listed under Postemergence (flood test species), scale 0 to 10): 0

CC(C)N(C(=O)n1oc(=O)n(CO)c1=O)c1ccc(F)cc1 [Compound 470]
Rape plant response rating (rape; [19]): 0 | Plant response rating, Rape (rape; [1]): 0 | Plant response rating, Rape (rape; [20]): 0 | Rape plant response rating (rape; [3]): 0 | Rape plant response rating (rape; [21]): 0 | Rape plant response rating (rape; [22]): 0 | Rape plant response rating (rape; [23]): 0 | Nutsedge plant response rating (purple nutsedge; [19]): 0 | Plant response rating, Nutsedge (purple nutsedge; [1]): 0 | Plant response rating, Nutsedge (purple nutsedge; [20]): 0 | Nutsedge plant response rating (purple nutsedge; [3]): 0 | Nutsedge plant response rating (purple nutsedge; [21]): 0 | Nutsedge plant response rating (purple nutsedge; [22]): 0 | Nutsedge plant response rating (purple nutsedge; [23]): 0 | Sugarbeets plant response rating (sugar beet; [19]): 0 | Plant response rating, Sugarbeets (sugar beet; [1]): 0 | Plant response rating, Sugarbeets (sugar beet; [20]): 0 | Sugarbeets plant response rating (sugar beet; [3]): 0 | Sugarbeets plant response rating (sugar beet; [21]): 0 | Sugarbeets plant response rating (sugar beet; [22]): 0 | Sugarbeets plant response rating (sugar beet; [23]): 0 | Plant response rating, Ducksalad (0 to 10 scale, 0 is no effect, 10 is complete control) (duck salad; Rate 62 g/ha, flood test species, Pre-emergence, visual evaluation after twelve to sixteen days): 0 | Ducksalad plant response rating (0 to 10 scale, 0 is no effect, 10 is complete control) (duck salad; Rate 125 g/ha, under heading Pre-emergence, flood test species, visual evaluation after twelve to sixteen days): 0 | Ducksalad plant response rating (duck salad; Rate 250 g/ha, Pre-emergence (flood test species), scale 0 to 10, 0 is no effect, 10 is complete control): 0 | Ducksalad plant response rating (duck salad; Rate 500 g/ha, Pre-emergence, flood test species, scale 0 to 10 (0 no effect, 10 complete control)): 0

Cc1ccccc1Cn1c(=O)on(C(=O)N(c2ccc(F)cc2F)C(C)C)c1=O [Compound 87]
Rape plant response rating (rape; [24]): 0 | Rape plant response rating (rape; [25]): 2 | Rape plant response rating (rape; [17]): 0 | Plant response rating, Rape (rape; [26]): 0 | Plant response rating, Rape (rape; [13]): 0 | Rape plant response rating (rape; [27]): 5 | Rape plant response rating (rape; [28]): 0 | Rape plant response rating (rape; [29]): 3 | Nutsedge plant response rating (purple nutsedge; [24]): 0 | Nutsedge plant response rating (purple nutsedge; [25]): 0 | Nutsedge plant response rating (purple nutsedge; [17]): 0 | Plant response rating, Nutsedge (purple nutsedge; [26]): 0 | Plant response rating, Nutsedge (purple nutsedge; [13]): 0 | Nutsedge plant response rating (purple nutsedge; [27]): 0 | Nutsedge plant response rating (purple nutsedge; [28]): 0 | Nutsedge plant response rating (purple nutsedge; [29]): 0 | Sugarbeets plant response rating (sugar beet; [24]): 0 | Sugarbeets plant response rating (sugar beet; [25]): 3 | Sugarbeets plant response rating (sugar beet; [17]): 0 | Plant response rating, Sugarbeets (sugar beet; [26]): 0 | Plant response rating, Sugarbeets (sugar beet; [13]): 3 | Sugarbeets plant response rating (sugar beet; [27]): 9 | Sugarbeets plant response rating (sugar beet; [28]): 3 | Sugarbeets plant response rating (sugar beet; [29]): 8 | Ducksalad plant response rating (duck salad; [24]): 0 | Ducksalad plant response rating (duck salad; Rate 31 g/ha, Postemergence section (flood test species), scale 0 to 10): 0 | Ducksalad plant response rating (duck salad; Rate 125 g/ha, Postemergence section (flood test species), scale 0 to 10, 0 no effect, 10 complete control): 0 | Ducksalad plant response rating (duck salad; Rate 250 g/ha, headed Pre-emergence (flood test species), scale 0 to 10 (0 no effect, 10 complete control)): 0 | Plant response rating, Ducksalad (duck salad; [11]): 0 | Ducksalad plant response rating (duck salad; Rate 1000 g/ha, Pre-emergence (as headed), scale 0 to 10): 0 | Ducksalad plant response rating (duck salad; Rate 2000 g/ha, Pre-emergence (as headed), scale 0 to 10): 0 | Ducksalad plant response rating (duck salad; flood test, listed under Postemergence, Rate 250 g/ha, scale 0 to 10, 0 no effect, 10 complete control): 0

Source: patent US6737383B1, “Herbicidal oxadiazolidines” (priority 1999, dated 2004)
